Measurements as given in patent EP0926242A1, “GLIOTOXIN DERIVATIVES AND ANTICANCER AGENT COMPRISING THE SAME” (priority 1996, dated 1998).
≈ marks a conversion by molar mass, not a printed value.

Legend:
Test in all cases: Cytotoxity of acetylgliotoxin by the MTT method
Assay type in all cases: cell-based
[1] = tested on: HCT-116 (human carcinoma of the colon); conditions: HCT-116, 72 hours
Procedure: (§1) Antitumor activity of acetylgliotoxin against various cancer cells was measured by the MTT method. Various cancer cells were adjusted to 4.0 × 10^4 cells/mL by using a medium (hereinafter referred to as medium A) composed of RPMI 1640 medium (GIBCO) containing 10% fetal calf serum, and each 0.1 mL of the cancer cells was pipetted into each well of a 96 well microtiter plate. The plate was incubated in a carbon dioxide gas incubator at 37 °C for 20 hours, and each 0.025 mL of samples (test compounds) suitably diluted with the medium A was added. Then, incubation was further carried out in the carbon dioxide gas incubator at 37 °C for 72 hours. Each 0.01 mL of the MTT solution adjusted to 5 mg/mL by using Dulbecco's PBS (-) (Nissui) was added thereto, and incubated in the carbon dioxide gas incubator at 37 °C for 3 hours. Subsequently, each 0.05 mL of 0.01 N HCl/20 % SDS was added. Produced crystals were dissolved, and absorbance at 570 nm was measured by a microplate reader. By comparing the absorbance of the cells treated with the sample in the known concentration with that of non-treated cells, the sample concentration which inhibits multiplication of the cells at the rate of 50% (IC50) was calculated. Apoptosis was determined by incubating the plate in the carbon dioxide gas incubator at 37 °C for 20 hours, adding each 0.025 mL of samples (test compounds) suitably diluted with the medium A, incubating in the carbon dioxide gas incubator at 37 °C for 72 hours, according to the above method, adding nucleus-staining fluorescent dye DAPI (4,6 - diaminodino-2-henylindole) to each well so as to become 0.5 ng/mL, and after leaving at room temperature for 10 minutes, confirming agglomeration of chromosomes by using a fluorescence microscope.
(§2) Human leukemia cells (K 562 : Dainippon Seiyaku), human carcinoma cells of the colon (HCT-15, HCT-116, SW946: Dainippon Seiyaku), human leukemia cells (U 937: Dainippon Seiyaku), human lung cancer cells (LX-1: Biseibutsu Kagaku Kenkyu-sho), mouse leukemia cells (P 388 : Dainippon Seiyaku), mouse carcinoma cells of the colon (colon-26 : Gan Kenkyu-kai, Gan Kenkyu-sho) Table 1

[2] = tested on: HCT-15 (human carcinoma of the colon); conditions: HCT-15, 72 hours
Procedure: as §1, §2

[3] = tested on: LX-1 (human lung cancer ); conditions: LX-1, 72 hours
Procedure: as §1, §2

P388 (mouse leukemia ) = conditions: P388, 72 hours
Procedure: as §1, §2

[4] = tested on: SW948 (human carcinoma of the colon); conditions: SW948, 72 hours
Procedure: as §1, §2

U937 (human leukemia ) = conditions: U-937, U937, 72 hours
Procedure: as §1, §2

[5] = tested on: colon-26 (mouse carcinoma of the colon ); conditions: colon-26, 72 hours
Procedure: as §1, §2

SMILES: CC(=O)OC1C=CC=C2CC34SSC(CO)(C(=O)N3C21)N(C)C4=O (stereo not shown) [acetylgliotoxin]
- IC50 [1]: 0.18 µg/mL (≈ 0.489 µM)
- IC50 [2]: 0.039 µg/mL (≈ 0.106 µM)
- IC50 [3]: 0.074 µg/mL (≈ 0.201 µM)
- IC50 (P388 (mouse leukemia )): 0.0058 µg/mL (≈ 0.0157 µM)
- IC50 [4]: 0.19 µg/mL (≈ 0.516 µM)
- IC50 (U937 (human leukemia )): 0.014 µg/mL (≈ 0.038 µM)
- IC50 [5]: 0.076 µg/mL (≈ 0.206 µM)
